Experimental data published in publication PMC9572513, “Novel Unsymmetric 3,5-Bis(benzylidene)-4-piperidones That Display Tumor-Selective Toxicity” (Molecules, 2022).
Counter-ions that a name gives are not always drawn. Like-named read-outs stand apart in the source and are kept apart here. One block for each compound: values may come before it.

Assays:
[1] = system: HCT116 colon cancer cells; assay: Cytotoxicity against HCT116 colon cancer cells; type: cell-based, human; conditions: for IC50: 48 h; for HCT116 SI (selectivity index): IC50 CRL1790 / IC50 HCT116
Procedure: (§1) The culture medium was supplemented with 10% heat-inactivated fetal bovine serum (FBS) and 1% penicillin–streptomycin antibiotics. The time of the bioassays was 48 h. The determinations were undertaken in triplicate on three different occasions.

HT29 colon cancer cells = assay: Cytotoxicity against HT29 colon cancer cells; type: cell-based, human; conditions: for IC50: 48 h; for HT29 SI (selectivity index): IC50 CRL1790 / IC50 HT29
Procedure: as §1

[2] = system: CRL1790 non-malignant colon cells; assay: Cytotoxicity against CRL1790 non-malignant colon cells; type: cell-based; conditions: Homo sapiens, 48 h
Procedure: as §1

[3] = system: HCT116 and HT29 colon cancer cells; assay: Average over HCT116 and HT29 colon cancer cells; type: cell-based, human; conditions: for IC50: Homo sapiens, average of HCT116 and HT29, unit printed only for the single cell-line columns; for Average SI: average of SI for HCT116 and HT29; for PSE (potency-selectivity expression): reciprocal of average IC50 x average SI x 100, colon cells
Procedure: as §1

[4] = system: Ca9-22 squamous cell carcinoma cells; assay: MTT cytotoxicity against Ca9-22 squamous cell carcinoma; type: cell-based, human; conditions: for CC50: Homo sapiens, Ca9-22, 48 h, MTT, read-out: Ca9-22 CC50; for Ca9-22 SI: average CC50 HGF/HPLF/HPC divided by CC50 Ca9-22
Procedure: (§2) The method for evaluating 2a–f and 3a–e against human oral squamous cell carcinoma (OSCC) cell lines (Ca9-22, HSC-2, HSC-3, HSC-4) and human non-malignant oral cells [human gingival fibroblast (HGF), human periodontal ligament fibroblast (HPLF), and human pulp cell (HPC)] have been reported previously, except the length of time of this bioassay was extended from 24 h to 48 h. In brief, different quantities of the compounds were incubated with the cells in Dulbecco’s modified eagle medium (DMEM), which was supplemented with 10% FBS and antibiotics. The cell viability was determined by the 3-(4,5-dimethylthiazol-2-yl)-2,5-diphenyl-2H-tetrazolium bromide (MTT) method as summarized previously (Figure 4).

[5] = system: HSC-2 squamous cell carcinoma cells; assay: MTT cytotoxicity against HSC-2 squamous cell carcinoma; type: cell-based, human; conditions: for CC50: Homo sapiens, HSC-2, 48 h, MTT, read-out: HSC-2 CC50; for HSC-2 SI: average CC50 HGF/HPLF/HPC divided by CC50 HSC-2
Procedure: as §2

[6] = system: HSC-3 squamous cell carcinoma cells; assay: MTT cytotoxicity against HSC-3 squamous cell carcinoma; type: cell-based, human; conditions: for CC50: Homo sapiens, HSC-3, 48 h, MTT, read-out: HSC-3 CC50; for HSC-3 SI: average CC50 HGF/HPLF/HPC divided by CC50 HSC-3
Procedure: as §2

[7] = system: HSC-4 squamous cell carcinoma cells; assay: MTT cytotoxicity against HSC-4 squamous cell carcinoma; type: cell-based, human; conditions: for CC50: Homo sapiens, HSC-4, 48 h, MTT, read-out: HSC-4 CC50; for HSC-4 SI: average CC50 HGF/HPLF/HPC divided by CC50 HSC-4
Procedure: as §2

[8] = system: Ca9-22, HSC-2, HSC-3, and HSC-4 squamous cell carcinoma cell lines; assay: Average over Ca9-22, HSC-2, HSC-3 and HSC-4 OSCC cell lines; type: cell-based, human; conditions: for CC50: average of four OSCC cell lines, read-out: Average CC50; for Average SI: average of SI for four OSCC cell lines; for PSE (potency-selectivity expression): reciprocal of average CC50 (OSCC) x average SI x 100
Procedure: as §2

[9] = MTT cytotoxicity against human gingival fibroblast (HGF); type: cell-based; conditions: human, human gingival fibroblasts (HGF), non-malignant oral cells
Procedure: as §2

[10] = MTT cytotoxicity against human periodontal ligament fibroblast (HPLF); type: cell-based; conditions: human, human periodontal ligament fibroblasts (HPLF), non-malignant oral cells
Procedure: as §2

[11] = MTT cytotoxicity against human pulp cell (HPC); type: cell-based; conditions: human, human pulp cells (HPC), non-malignant oral cells
Procedure: as §2

[12] = Average over HGF, HPLF and HPC non-malignant oral cells; type: cell-based, human; conditions: human, HPLF and HPC non-malignant oral cells (average), average of HGF
Procedure: as §2

CEM cells [13] = assay: Differential DNA staining (DNS) cytotoxicity assay, CEM cells; type: cell-based; conditions: Homo sapiens, CCRF-CEM
Procedure: (§3) The method used for generating the data of human acute lymphocytic leukemia (CEM) and human acute promyelocytic leukemia (HL-60) cells in Table 4 has been described previously. In brief, the cells were cultured in media supplemented with 10% FBS and antibiotics. […] The CC50 values of the compounds listed in Table 4 were obtained by linear interpolation equations [28, 29].

HL-60 cells = assay: Differential DNA staining (DNS) cytotoxicity assay, HL-60 cells; type: cell-based; conditions: Homo sapiens
Procedure: as §3

CEM cells [14] = assay: Annexin V-FITC apoptosis assay in CEM cells; type: cell-based, human; conditions: CC50 and twice the CC50 concentrations, 24 h
Procedure: In order to discover if representative compounds induce apoptosis, the annexin V-FITC assay was used. In brief, CEM cells were treated with various compounds for 24 h. The cells were collected and stained with propidium iodide and annexin V-FITC.

CEM cells [15] = assay: ROS production in CEM cells (carboxy-H2DCFDA, flow cytometry); type: cell-based, human; conditions: CC50 and twice the CC50 concentrations
Procedure: (§4) Apoptosis induction in Ca9-22 cells was evaluated by cell cycle analysis and Western blot analysis as described previously (Figure 5). Briefly, for the cell cycle analysis, cells were treated for 24 h with the test samples. Cells were then fixed, digested with RNase A, stained with propidium iodide, filtered through Falcon® cell trainers (Corning Inc., Corning, NY, USA), and then subjected to cell sorting. For the Western blot, cell lysates (equivalent to 5 µg protein) were applied to SDS-polyacrylamide gel electrophoresis. A literature method was used to determine whether representative compounds led to increases in the production of ROS [29]. In brief, CEM cells were treated with the compounds overnight, then with 6-carboxy-2′,7′-dichlorodihydrofluorescein diacetate (carboxy-H2DCFDA) and the samples were processed using flow cytometry.

Ca9-22 cells = assay: Western blot for caspase 3 activation in Ca9-22 cells; type: cell-based, human; conditions: 3 μM, 24 h
Procedure: as §4

CEM cells [16] = assay: Mitochondrial membrane potential in CEM cells (JC-1, flow cytometry); type: cell-based, human; conditions: 7 h
Procedure: The effect on the mitochondrial membrane potential in CEM cells was undertaken using a published method. In brief, the cells were incubated with different compounds for 7 h. The cells were then stained with the JC-1 dye, and the samples were examined by flow cytometry. The results are portrayed in Figure 6C.

[17] = 24 h, read-out: CC50 CEM Cells 24 h
[18] = 48 h, read-out: CC50 CEM Cells 48 h
[19] = HL-60, 24 h, read-out: CC50 HL-60 Cells 24 h
[20] = HL-60, 48 h, read-out: CC50 HL-60 Cells 48 h

IC50 [3]: 1.77 µM
SMILES: COc1ccc(C=C2CNCC(=Cc3ccc(O)c(CN(C)C)c3)C2=O)cc1OC.Cl.Cl [Compound 2a, 3-(3,4-Dimethoxybenzylidene)-5-(3-((dimethylamino)methyl)-4-hydroxybenzylidene)-4-piperidone dihydrochloride]
IC50 ([1]; Homo sapiens, HCT-116, 48 h): 1.73 ± 0.48 µM | HCT116 SI (selectivity index) [1]: 10.1 | IC50 (HT29 colon cancer cells; Homo sapiens, HT-29, 48 h): 1.8 ± 1.24 µM | HT29 SI (selectivity index) (HT29 colon cancer cells): 9.72 | IC50 [2]: 17.5 ± 0.58 µM | Average SI [3]: 9.91 | PSE (potency-selectivity expression) [3]: 560 | CC50 [4]: 0.68 µM | Ca9-22 SI [4]: 11.4 | CC50 [5]: 1.2 µM | HSC-2 SI [5]: 6.44 | CC50 [6]: 1.06 µM | HSC-3 SI [6]: 7.29 | CC50 [7]: 1.39 µM | HSC-4 SI [7]: 5.56 | CC50 ([8]; Homo sapiens): 1.08 µM | Average SI [8]: 7.67 | CC50 at 48 h [9]: 15.9 µM | CC50 at 48 h [10]: 5 µM | CC50 at 48 h [11]: 2.3 µM | CC50 at 48 h [12]: 7.73 µM | CC50 (CEM cells [13]; [17]): 1.64 ± 0.68 µM | CC50 (CEM cells [13]; [18]): 0.82 ± 0.02 µM | CC50 (HL-60 cells; [19]): 1.99 ± 0.92 µM | CC50 (HL-60 cells; [20]): 2.21 ± 0.37 µM | apoptotic cells (CEM cells [14]): approximately 30% | ROS generation (CEM cells [15]): generate ROS | caspase 3 activation (cleavage of PARP and procaspase) (Ca9-22 cells): induced | depolarization of the mitochondrial membrane potential (CEM cells [16]): induced

IC50 [3]: 0.72 µM
SMILES: COc1ccc(/C=C2\CNC/C(=C\c3ccc(O)c(CN4CCN(C)CC4)c3)C2=O)cc1OC [Compound 2f, 3-[3-(4-Methyl-1-piperazinylmethyl)-4-hydroxybenzylidene]-5-(3,4-dimethoxybenzylidene)-4-piperidone trihydrochloride]
IC50 [1]: 0.68 ± 0.31 µM | IC50 ([1]; Homo sapiens, HCT-116, 48 h): < 1 µM | HCT116 SI (selectivity index) [1]: 18.7 | IC50 (HT29 colon cancer cells): 0.76 ± 0.3 µM | IC50 (HT29 colon cancer cells; Homo sapiens, HT-29, 48 h): < 1 µM | HT29 SI (selectivity index) (HT29 colon cancer cells): 16.7 | IC50 [2]: 12.7 ± 0.31 µM | Average SI [3]: 17.7 | PSE (potency-selectivity expression) [3]: 2458 | CC50 [4]: 1.94 µM | Ca9-22 SI [4]: 8.81 | CC50 [5]: 2.8 µM | HSC-2 SI [5]: 6.11 | CC50 [6]: 2.47 µM | HSC-3 SI [6]: 6.92 | CC50 [7]: 2.73 µM | HSC-4 SI [7]: 6.26 | CC50 ([8]; Homo sapiens): 2.49 µM | Average SI [8]: 7.03 | CC50 at 48 h [9]: 33.1 µM | CC50 at 48 h [10]: 12 µM | CC50 at 48 h [11]: 6.1 µM | CC50 at 48 h [12]: 17.1 µM | CC50 (CEM cells [13]; [17]): 8.91 ± 1.32 µM | CC50 (CEM cells [13]; [18]): 2.89 ± 0.2 µM | CC50 (HL-60 cells; [19]): 3.75 ± 1.07 µM | CC50 (HL-60 cells; [20]): 2.73 ± 0.57 µM

IC50 [3]: 0.37 µM
SMILES: CN1CCN(Cc2cc(/C=C3\CNC/C(=C\c4ccccc4)C3=O)ccc2O)CC1 [Compound 3a]
IC50 [2]: 21.7 ± 0.25 µM | Average SI [3]: 60.1 | PSE (potency-selectivity expression) [3]: 16,243 | CC50 [4]: 0.43 µM | Ca9-22 SI [4]: 13.6 | CC50 [5]: 0.67 µM | HSC-2 SI [5]: 8.70 | CC50 [6]: 0.49 µM | HSC-3 SI [6]: 11.9 | CC50 [7]: 0.71 µM | HSC-4 SI [7]: 8.21 | CC50 ([8]; Homo sapiens): < 1 µM | CC50 [8]: 0.58 µM | PSE (potency-selectivity expression) [8]: > 1000 | CC50 at 48 h [9]: 10.2 µM | CC50 at 48 h [10]: 4.7 µM | CC50 at 48 h [11]: 2.6 µM | CC50 at 48 h [12]: 5.83 µM | CC50 (CEM cells [13]; [17]): 3.06 ± 0.08 µM | CC50 (CEM cells [13]; [18]): 3.32 ± 0.3 µM | CC50 (HL-60 cells; [19]): 8.27 ± 0.4 µM | CC50 (HL-60 cells; [20]): 1.67 ± 0.54 µM | apoptotic cells (CEM cells [14]): approximately 30% | ROS generation (CEM cells [15]): generate ROS | caspase 3 activation (cleavage of PARP and procaspase) (Ca9-22 cells): induced | depolarization of the mitochondrial membrane potential (CEM cells [16]): induced

IC50 [3]: 0.27 µM
SMILES: CN1CCN(Cc2cc(/C=C3\CNC/C(=C\c4ccc(F)cc4)C3=O)ccc2O)CC1 [Compound 3b]
HCT116 SI (selectivity index) [1]: 45.0 | HT29 SI (selectivity index) (HT29 colon cancer cells): 48.5 | IC50 [2]: 12.6 ± 0.24 µM | Average SI [3]: 46.8 | PSE (potency-selectivity expression) [3]: 17,333 | CC50 [4]: 0.55 µM | Ca9-22 SI [4]: 18.4 | CC50 [5]: 0.91 µM | HSC-2 SI [5]: 11.1 | CC50 [6]: 0.95 µM | HSC-3 SI [6]: 10.6 | CC50 [7]: 1.14 µM | HSC-4 SI [7]: 8.86 | CC50 ([8]; Homo sapiens): < 1 µM | CC50 [8]: 0.89 µM | PSE (potency-selectivity expression) [8]: > 1000 | CC50 at 48 h [9]: 18.5 µM | CC50 at 48 h [10]: 7.4 µM | CC50 at 48 h [11]: 4.3 µM | CC50 at 48 h [12]: 10.1 µM | CC50 (CEM cells [13]; [17]): 3.15 ± 1.29 µM | CC50 (CEM cells [13]; [18]): 0.4 ± 0.03 µM | CC50 (HL-60 cells; [19]): 5.9 ± 0.76 µM | CC50 (HL-60 cells; [20]): 2.65 ± 0.43 µM
